Results reported in patent publication US20230398130A1, “METHODS AND COMPOSITIONS FOR DIFFERENTIATING STEM CELLS” (Massachusetts Institute of Technology, priority 2020, published 2023).
Entries after “also recorded” stand apart in the source; their conditions may differ.

Experiments:
ISC-enriched organoids [1] = assay: Primary screen, 384-well 2.5-D organoid differentiation (ENR+CD, 6 days): carbachol-induced lysozyme secretion (LYZ.S); format: cell-based, murine; conditions: primary screen; for Z.LYZ.S: standard z score; for SSMD.LYZ.S: strictly standardized mean difference
From the text: High-throughput screening.

[2] = tested on: human small intestinal organoids; assay: Single-cell RNA-seq (Seq-Well S^3) of human small intestinal organoids with or without KPT-330; format: cell-based
From the text: To more completely explore the changes induced by KPT-330 in this human organoid model, and any donor associated effects, Applicants again utilized scRNA-seq via Seq-Well S^3. Applicants performed a comparison between untreated and KPT-330-treated organoids from each donor over a 6-day differentiation, with each sample consisting of single cells from >1,000 organoids. The resulting dataset consists of 2,484 cells. UMI, percent mitochondrial, and detected gene distributions are similar across samples, within acceptable quality bounds (genes >500, UMI<30,000, percent mitochondrial <35) (FIG. 60A).
For both, organoids at each sampling were harvested from 4-6 pooled Matrigel domes, totaling >1,000 organoids per sample. Excess Matrigel was removed per previously described washing protocol, and organoids were resuspended in TrypLE at 37 C for 15 min, with vigorous homogenization through a p200 pipette tip every 5 min. After 15 min, the suspension was passed through a 30 uM cell strainer twice, and counted under brightfield microscopy with trypan blue staining for viable single cells. For human organoid scRNA-seq, antibody-based cell hashing was performed, with all samples pooled following labeling and three washes in FACS buffer to remove excess antibody. Each sample was manually counted to equally weight in cell pools, and then the pool was split and processed as four identical samples.
Antibody hashed arrays were demultiplex with doublets and negative-staining cells removed following default settings of the Seurat function HTODemux.
Applicants performed integrated analysis on a combined dataset of 2,484 cells, with quality metrics for gene number, captured UMIs, and percent mitochondrial genes reported in Supp. […] Dimensional reduction and clustering was performed following normalization in Seurat V3 via SCTransform^71. Applicants performed variable gene identification and dimensionality reduction utilizing the first 18 principal components based on the elbow method to identify 7 clusters using Louvain clustering (Resolution=0.5). […]

ISC-enriched organoids [3] = assay: Lysozyme secretion assay, 3-D organoids in ENR+CD, normalized to ATP; format: cell-based, murine
Method: Lysozyme assay (3D culture). ISC-enriched organoids cultured in 3D Matrigel with ENRCV media were passaged to 48-well plate in 3D Matrigel with ENRCV. At day zero, media were replaced to ENR or ENRCD with or without indicated compounds, and media were replaced every other day. At day six, cells were washed twice with basal media and treated with carbamylcholine chloride (Sigma, C4382) for 3 hours. Media were collected and lysozyme activity was measured by EnzChek Lysozyme Assay Kit (ThermoFisher, E22013).
(§1) Lysozyme secretion assay. ISC-enriched organoids in 3D Matrigel culture were passaged to a 48- or 96-well plate and cultured with ENR or ENR+CD media containing DMSO or each drug for 6 days. DMSO- or drug-containing media were changed every other day. On day 6, cells were washed with basal media twice and treated with basal media with or without 10 μM carbamoylcholine chloride for 3 h in a CO2 incubator at 37° C. A part of the conditioned media was collected and used for lysozyme assay (Thermo, E-22013) following the manufacturer's instruction. The fluorescence was measured using excitation/emission of 485/530 nm. CellTiter-Glo 3D Reagent (Promega, G9681) was added afterward, and the cell culture plate was incubated on an orbital shaker at RT for 30 min to induce cell lysis and to stabilize the luminescent signal. The solution was replaced to a 96-well white microplate, and luminescent signals were measured by a microplate reader (infinite M200, Tecan). The standard curve was prepared by diluting recombinant ATP (Promega, P1132). For both assays, a polynomial cubic curve was fitted to a set of standard data, and each sample value was calculated on the Microsoft Excel.
as §1, with “in 3-D” for “in 3D”, “μM carbachol” for “μM carbamoylcholine chloride”, “3 hours” for “3 h”, “C. Conditioned” for “C. A part of the conditioned”, “nm. CTG” for “nm. CellTiter-Glo”, “Reagent” for “Reagent (Promega, G9681)”

[4] = 1st of the 4 dose lines of the treatment (dose not given)
[5] = 2nd of the 4 dose lines of the treatment (dose not given)
[6] = 3rd of the 4 dose lines of the treatment (dose not given)
[7] = 4th of the 4 dose lines of the treatment (dose not given)

Q: With `O=C(/C=C\n1cnc(-c2cc(C(F)(F)F)cc(C(F)(F)F)c2)n1)NNc1cnccn1` [KPT-330] as the molecule, how does the Z.LYZ.S (ISC-enriched organoids [1]; [4]) read?
A: 1.677

Q: What about the Z.LYZ.S (ISC-enriched organoids [1]; [5]) of the same molecule?
A: −1.821

Q: And the Z.LYZ.S (ISC-enriched organoids [1]; [6])?
A: −2.523

Q: What about the Z.LYZ.S (ISC-enriched organoids [1]; [7]) of the same molecule?
A: −2.733

Q: And the SSMD.LYZ.S (ISC-enriched organoids [1]; [4])?
A: 1.329

Q: What about the SSMD.LYZ.S (ISC-enriched organoids [1]; [5]) of the same molecule?
A: −0.894

Q: And the SSMD.LYZ.S (ISC-enriched organoids [1]; [6])?
A: −1.575

Q: What about the SSMD.LYZ.S (ISC-enriched organoids [1]; [7]) of the same molecule?
A: −1.599

Q: What about the “LYZ expression (scRNA-seq)” value ([2]; 160 nM KPT-330, 6 days, all donors) of the same molecule?
A: increased LYZ expression

Q: What about the “cell type composition (scRNA-seq)” value ([2]; 160 nM KPT-330, 6 days, pan-donor) of the same molecule?
A: decreases in cycling stem and progenitor populations, increases in quiescent progenitors and enterocytes

Q: What about the “XPO1 expression (scRNA-seq)” value ([2]; following KPT-330 treatment) of the same molecule?
A: compensatory increase in XPO1 expression

Q: What about the “LYZ secretion, dose dependency” value (ISC-enriched organoids [3]; KPT-330 below 160 nM for 6 days, basal and Cch-stimulated) of the same molecule?
A: enhanced Paneth cell activity in a dose-dependent manner; also recorded: LYZ secretion increasing in a dose-dependent manner

Q: And the “enrichment in mature Paneth cells at day 6 (LYZ secretion assay)” value (ISC-enriched organoids [3]; KPT-330 treatment day 4-6)?
A: minorly enriched; also recorded: slightly enriched

Q: And the “most effective dose among tested concentrations” value (ISC-enriched organoids [3]; LYZ secretion, ENR+CD 6 days)?
A: 160 nM
